Data set [1] concerns C. lagenarium. Kind of data set: Spore germination assay, fungicidal activity against C. lagenarium. It counts as cell-based, Colletotrichum lagenarium. As to the method: (§1) The fungal pathogens C. lagenarium and B. cinerea was provided by the Agricultural Culture Collection of China (Yangling, Shaanxi, China). C. lagenarium was cultured for 2 weeks at 25 ± 1 °C on potato dextrose agar (PDA) while B. cinerea was cultured at 20 °C on the same medium after being retrieved from the storage tube. Plates were flooded with sterile distilled water, and then conidia were scraped with a glass rod. Mycelial debris was removed by filtration. The spores were harvested and suspended in sterile distilled water containing 0.1% (v/v) Tween 20. The concentration of the spore suspension was adjusted to 1.0 × 10^6 spores/mL with sterilized distilled water following.
(§2) The tested samples (10.0 mg) dissolved in acetone (0.1 mL) were diluted with sterile distilled water to prepare 10.0 mL stock solution, which was further diluted to prepare test solutions in which the final concentration of acetone was <1% (v/v). A series of concentrations of tested samples and one control (1% acetone with sterile distilled water) were separately tested for spore germination of C. lagenarium or B. cinerea. The samples were inoculated with spore suspension of C. lagenarium or B. cinerea containing 1.0 × 10^6 spores/mL. Aliquots of 10 μL of prepared spore suspension were placed on separate glass slides in triplicate. Slides containing the spores were incubated in a moisture chamber at 25 °C for 6~8 h. Each slide was then observed under the microscope for spore germination. Spores were considered to have germinated if the length of the germ tube was at least half the length of the spore. Afterward, spore germination was stopped by applying a drop of lactophenol-cotton blue to the inoculation sites on plates. The numbers of generated spores were counted under a microscope (Olympus BX61, Tokyo, Japan), and the percentage of germinated spores was calculated. Chlorothalonil was used as the positive control.

Data set [2] has as its system B. cinerea. Kind of data set: Spore germination assay, fungicidal activity against B. cinerea. To be noted: in vitro, n = 3. It counts as cell-based, Botrytis cinerea. As to the method:
as §1, §2

Setting [3] is: Colletotrichum orbiculare, Table 1, from IC50 in μM, read-out: pIC50, C. lagenarium (converted).
[4] abbreviates: Colletotrichum orbiculare, in vitro, spore germination, n = 3, read-out: IC50, C. lagenarium.
Setting [5] is: Colletotrichum orbiculare, Table 2, fungicidal activity against C. lagenarium used for QSAR, read-out: pIC50 (converted).
Where [6] appears, read: Colletotrichum orbiculare, Table 4, experimental, C. lagenarium, read-out: Exp. pIC50 (converted).

Experimental findings from article PMC6273913, “New α-Methylene-γ-Butyrolactone Derivatives as Potential Fungicidal Agents: Design, Synthesis and Antifungal Activities” (Molecules, 2016) are described below.

Like-named read-outs stand apart in the source and are kept apart here.

In general, pIC50 refers to the negative decadic logarithm of the IC50, by convention in mol/L. In general, melting point refers to the temperature, or range, at which the solid turns liquid.

With “4-[2-(Cinnamoyloxy)phenyl]-2-methylenebutyrolactone [Compound 5n]”, the “pIC50, C. lagenarium” value in data set [1] (Table 1, from IC50 in μM) is on record as −1.012. The molecule further had a pIC50 in data set [1] (Table 2, fungicidal activity against C. lagenarium used for QSAR) of −1.0120. In addition, the “Exp. pIC50” value in data set [1] (Table 4, experimental, C. lagenarium) is −1.0120. Further, the IC50 came to 10.3 µM in data set [1] (in vitro, spore germination, n = 3, read-out: IC50, C. lagenarium) and 20.6 µM in data set [2].

For the molecule `N#Cc1c(Cl)c(Cl)c(Cl)c(C#N)c1Cl` [Chlorothalonil, reference compound], the values for the IC50 in data set [1] (setting [3]), in data set [1] (setting [4]) and in data set [2] (Botrytis cinerea) were 4.21 µM, 4.21 µM and 8.31 µM, respectively.

`C=C1CC(c2ccc(OC(=O)c3ccccc3Cl)cc2)OC1=O` (stereo not shown) [Compound 4a, 4-[4-(2-Chlorobenzoyloxy)phenyl]-2-methylenebutyrolactone]: the melting point fell in the range of 187.2 to 187.9 °C. Further, in data set [1] (setting [3]), the IC50 was 14 µM. Also, the IC50 in data set [1] (setting [5]) was 14 µM. Moreover, the IC50 in data set [1] (setting [6]) is 14 µM. The IC50 in data set [1] (setting [4]) came to 14 µM. The IC50 in data set [2] (Botrytis cinerea) worked out at 29.8 µM.

Molecule `C=C1CC(c2ccc(OC(=O)c3ccc(Cl)cc3)cc2)OC1=O` (stereo not shown) [Compound 4c, 4-[4-(4-Chlorobenzoyloxy)phenyl]-2-methylenebutyrolactone] registered a melting point of 171.3 to 171.6 °C. Besides, in data set [1] (setting [3]), the IC50 was 12.7 µM. The IC50 in data set [1] (setting [5]) is 12.7 µM. Also, the IC50 in data set [1] (setting [6]) is 12.7 µM. For the same molecule, the IC50 in data set [1] (setting [4]) is 12.7 µM. Besides, in data set [2] (Botrytis cinerea), the IC50 was 27.3 µM.

With `C=C1CC(c2ccc(OC(=O)c3ccc(C#N)cc3)cc2)OC1=O` (stereo not shown) [Compound 4h], the IC50 was 65.6 µM in data set [1] (setting [3]); 65.6 µM in data set [1] (setting [5]); 65.6 µM in data set [1] (setting [6]); 65.6 µM in data set [1] (setting [4]); 77 µM in data set [2] (Botrytis cinerea).

With `C=C1CC(c2ccc(OC(=O)C=Cc3ccccc3)cc2)OC1=O` (stereo not shown) [Compound 4r, 4-[4-(Cinnamoyloxy)phenyl]-2-methylenebutyrolactone], the IC50 in data set [1] (setting [3]) was 44.5 µM; in data set [1] (setting [5]), 44.5 µM; in data set [1] (setting [6]), 44.5 µM; in data set [1] (setting [4]), 44.5 µM; in data set [2] (Botrytis cinerea), 56.3 µM.

In the case of `C=C1CC(c2ccccc2O)OC1=O` (stereo not shown) [Compound 5, 4-(2-Hydroxyphenyl)-2-methylenebutyrolactone], the IC50 in data set [1] (setting [3]) was 239 µM; in data set [1] (setting [4]) it was 239 µM; in data set [2] (Botrytis cinerea), 280 µM.

For `C=C1CC(c2ccccc2OC(=O)c2ccc(C#N)cc2)OC1=O` (stereo not shown) [Compound 5f], the IC50 was 79.1 µM in data set [1] (setting [3]); 79.1 µM in data set [1] (setting [5]); 79.1 µM in data set [1] (setting [6]); 79.1 µM in data set [1] (setting [4]); 95 µM in data set [2] (Botrytis cinerea).

Consider `C=C1CC(c2ccccc2OCCCC)OC1=O` (stereo not shown) [Compound 5o, 4-(2-Butoxyphenyl)-2-methylenebutyrolactone], for which the IC50 in data set [1] (setting [3]) was 414 µM; in data set [1] (setting [5]), 414 µM; in data set [1] (setting [6]), 414 µM; in data set [1] (setting [4]) it was 414 µM; in data set [2] (Botrytis cinerea), 457 µM.

Turning to `C=C1CC(c2ccccc2OC(C)C)OC1=O` (stereo not shown) [Compound 5q, 4-(2-Isopropoxylphenyl)-2-methylenebutyrolactone], the IC50 in data set [1] (setting [3]) is 429 µM; in data set [1] (setting [5]), 429 µM; in data set [1] (setting [6]), 429 µM; in data set [1] (setting [4]), 429 µM; in data set [2] (Botrytis cinerea), 446 µM.

As for `C=C1CC(c2cccc(OC(=O)CC)c2)OC1=O` (stereo not shown) [Compound 6m, 4-(3-Propionyloxyphenyl)-2-methylenebutyrolactone], the IC50 was 173 µM in data set [1] (setting [3]); 173 µM in data set [1] (setting [5]); 173 µM in data set [1] (setting [6]); 173 µM in data set [1] (setting [4]); 203 µM in data set [2] (Botrytis cinerea).

Take `C=C1CC(c2cccc(OCCC)c2)OC1=O` (stereo not shown) [Compound 6p, 4-(3-Propoxylphenyl)-2-methylenebutyrolactone]: the IC50 in data set [1] (setting [3]) is 266 µM; in data set [1] (setting [5]) it was 266 µM; in data set [1] (setting [6]) it was 266 µM; in data set [1] (setting [4]), 266 µM; in data set [2] (Botrytis cinerea) it was 298 µM.
